Consider seven molecules from US20250353891A1 (MEDIMMUNE LIMITED, priority 2022, published 2025).

The target of experiment [1] is human GLP-1 receptor (hGLP-1R) (Homo sapiens, UniProt P43220). In words: cAMP production (HTRF) in CHO cells expressing hGLP-1R. It counts as cell-based. Details: expressed in transfected cells. The conditions noted are these: for EC50: cAMP in CHO hGLP-1R cells, geometric mean, read-out: hGLP-1R EC50; for % Relative Potency Ratio: % GLP-1R activity relative to GLP-1 / % GlucR activity relative to glucagon. The procedure, abridged: (§1)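 Read-out: HTRF cAMP (anti-cAMP cryptate donor, cAMP-d2 acceptor in conjugate/lysis buffer), converted to % Delta F and fitted by 4-parameter logistic for EC50. Cell densities were 1×10^5 cells/mL (hGLP-1R) or 2×10^5 cells/mL (hGCGR). Stimulation lasted 30 min at room temperature.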
human GLP-1 receptor (hGLP-1R), sequence (P43220 24-463): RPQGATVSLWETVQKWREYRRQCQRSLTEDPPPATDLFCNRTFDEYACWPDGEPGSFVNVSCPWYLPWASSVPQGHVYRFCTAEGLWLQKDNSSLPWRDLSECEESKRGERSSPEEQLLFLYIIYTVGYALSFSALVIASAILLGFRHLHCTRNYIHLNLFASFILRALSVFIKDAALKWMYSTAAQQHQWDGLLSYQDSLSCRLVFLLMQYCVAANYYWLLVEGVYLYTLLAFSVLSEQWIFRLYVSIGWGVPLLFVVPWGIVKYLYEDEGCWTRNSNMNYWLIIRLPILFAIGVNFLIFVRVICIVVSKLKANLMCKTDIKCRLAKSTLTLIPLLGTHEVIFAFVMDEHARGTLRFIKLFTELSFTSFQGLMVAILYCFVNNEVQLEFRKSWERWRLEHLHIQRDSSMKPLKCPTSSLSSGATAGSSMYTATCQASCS
Background: Changes in cAMP serve as a functional read-out for many G protein-coupled receptors.

Experiment [2] has as its target human glucagon receptor (hGCGR) (Homo sapiens, UniProt P47871). In words: cAMP production (HTRF) in CHO cells expressing hGCGR. It counts as cell-based. Details: expressed in transfected cells. The conditions noted are these: cAMP in CHO hGCGR cells, geometric mean, read-out: hGluc-R EC50. The procedure, abridged: as §1
[3] abbreviates: Table 6, peptides modified at position 17.
The mark [4] stands for this setting: Table 7, peptides modified at position 20.

Read-outs that look alike come from different tables or passages of the source. Starred links: 1 amine or outer side, 2 acyl side, 3 side chain; linkers in the order of their positions; H or OH if unused. Non-standard residues stand in square brackets, D forms with d. Residues, ends and D or L forms follow the SMILES beside them. Groups on a side chain read outwards from the residue. *: point of attachment. C18 diacid = O=C(O)CCCCCCCCCCCCCCCCC(=O)*; γGlu = O=C(O)[C@H](CCC(=O)[*:2])N[*:1]; Stearoyl = CCCCCCCCCCCCCCCCCC(=O)*; αMeF = C[C@](N)(Cc1ccccc1)C(=O)O; PEG2 = NCCOCCOCCC(=O)O; AEEA = NCCOCCOCC(=O)O; Aib = CC(C)(N)C(=O)O

human glucagon receptor (hGCGR), sequence (P47871 26-477): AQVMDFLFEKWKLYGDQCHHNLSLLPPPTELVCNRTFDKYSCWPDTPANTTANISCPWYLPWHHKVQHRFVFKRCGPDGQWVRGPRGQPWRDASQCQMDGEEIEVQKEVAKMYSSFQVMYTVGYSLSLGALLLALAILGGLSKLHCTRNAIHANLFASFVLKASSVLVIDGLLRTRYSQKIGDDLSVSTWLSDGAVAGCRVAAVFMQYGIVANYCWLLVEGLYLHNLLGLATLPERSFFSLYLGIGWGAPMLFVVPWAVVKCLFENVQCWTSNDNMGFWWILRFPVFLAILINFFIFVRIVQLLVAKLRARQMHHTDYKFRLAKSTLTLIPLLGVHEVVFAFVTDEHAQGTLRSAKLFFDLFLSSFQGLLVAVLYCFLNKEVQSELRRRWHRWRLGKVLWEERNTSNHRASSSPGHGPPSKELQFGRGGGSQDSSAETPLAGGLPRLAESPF

As usually defined, the EC50 is the concentration at which the effect is half-maximal. With `CC(C)C[C@H](NC(=O)[C@H](Cc1c[nH]c2ccccc12)NC(=O)[C@H](C)NC(=O)[C@@H](NC(=O)[C@H](Cc1ccccc1)NC(=O)[C@H](CC(=O)O)NC(=O)[C@H](CCCNC(=N)N)NC(=O)[C@H](C)NC(=O)[C@H](CCCNC(=N)N)NC(=O)[C@H](CCCCNC(=O)COCCOCCNC(=O)COCCOCCNC(=O)CC[C@H](NC(=O)CCCCCCCCCCCCCCCCC(=O)O)C(=O)O)NC(=O)[C@@H](NC(=O)[C@H](CC(=O)O)NC(=O)[C@H](CC(C)C)NC(=O)[C@](C)(Cc1ccccc1)NC(=O)[C@H](CCCCN)NC(=O)[C@H](CO)NC(=O)[C@@H](NC(=O)[C@H](CC(=O)O)NC(=O)[C@H](CO)NC(=O)[C@@H](NC(=O)[C@H](Cc1ccccc1)NC(=O)[C@@H](NC(=O)CNC(=O)[C@H](CCC(N)=O)NC(=O)C(C)(C)NC(=O)[C@@H](N)Cc1c[nH]cn1)[C@@H](C)O)[C@@H](C)O)C(C)C)[C@@H](C)O)C(C)C)C(=O)N[C@@H](CCC(=O)O)C(=O)N[C@@H](C)C(=O)NC(C)(C)C(=O)NCC(=O)O` [Peptide 201] (H-H[Aib]QGTFTSDVSK[αMeF]LDTK([AEEA-AEEA-γGlu-C18 diacid])RARDFVAWLEA[Aib]G-OH), the EC50 was 22.7 pM in experiment [1] (setting [3]) and 183 pM in experiment [2] (setting [3]). The “% Relative Potency Ratio” value in experiment [1] (Table 6) is 15.9.

In the case of `CC(C)C[C@H](NC(=O)[C@H](Cc1c[nH]c2ccccc12)NC(=O)[C@H](CCCNC(=N)N)NC(=O)[C@@H](NC(=O)[C@H](Cc1ccccc1)NC(=O)[C@H](CC(=O)O)NC(=O)[C@H](CCC(N)=O)NC(=O)[C@H](C)NC(=O)[C@H](CCCNC(=N)N)NC(=O)[C@H](CCCCNC(=O)COCCOCCNC(=O)COCCOCCNC(=O)CC[C@H](NC(=O)CCCCCCCCCCCCCCCCC(=O)O)C(=O)O)NC(=O)[C@@H](NC(=O)[C@H](CC(=O)O)NC(=O)[C@H](CC(C)C)NC(=O)[C@](C)(Cc1ccccc1)NC(=O)[C@H](CCCCN)NC(=O)[C@H](CO)NC(=O)[C@@H](NC(=O)[C@H](CC(=O)O)NC(=O)[C@H](CO)NC(=O)[C@@H](NC(=O)[C@H](Cc1ccccc1)NC(=O)[C@@H](NC(=O)CNC(=O)[C@H](CCC(N)=O)NC(=O)C(C)(C)NC(=O)[C@@H](N)Cc1c[nH]cn1)[C@@H](C)O)[C@@H](C)O)C(C)C)[C@@H](C)O)C(C)C)C(=O)N[C@@H](CC(C)C)C(=O)NC(C)(C)C(=O)N[C@H](C(=O)N[C@@H](CCC(=O)O)C(=O)O)[C@@H](C)O` [Peptide 174] (H-H[Aib]QGTFTSDVSK[αMeF]LDTK([AEEA-AEEA-γGlu-C18 diacid])RAQDFVRWLL[Aib]TE-OH; N-terminus assumed), the 50% effective concentration (EC50) in experiment [1] (setting [3]) is 127 pM; in experiment [2] (setting [3]), 420 pM. Besides, in experiment [1] (Table 6), the “% Relative Potency Ratio” value is 6.5.

As to `CC[C@H](C)[C@H](NC(=O)[C@H](Cc1c[nH]c2ccccc12)NC(=O)[C@H](CCC(N)=O)NC(=O)[C@@H](NC(=O)[C@H](Cc1ccccc1)NC(=O)[C@H](CC(=O)O)NC(=O)[C@H](CCC(N)=O)NC(=O)[C@H](C)NC(=O)[C@H](C)NC(=O)[C@H](CCCCNC(=O)COCCOCCNC(=O)COCCOCCNC(=O)CC[C@H](NC(=O)CCCCCCCCCCCCCCCCC(=O)O)C(=O)O)NC(=O)[C@H](CO)NC(=O)[C@H](CC(=O)O)NC(=O)[C@H](CC(C)C)NC(=O)[C@](C)(Cc1ccccc1)NC(=O)[C@H](CCCCN)NC(=O)[C@H](CO)NC(=O)[C@@H](NC(=O)[C@H](CC(=O)O)NC(=O)[C@H](CO)NC(=O)[C@@H](NC(=O)[C@](C)(Cc1ccccc1)NC(=O)[C@H](CO)NC(=O)CNC(=O)[C@H](Cc1c[nH]cn1)NC(=O)C(C)(C)NC(=O)[C@@H](N)Cc1c[nH]cn1)[C@@H](C)O)C(C)C)C(C)C)C(=O)N[C@@H](C)C(=O)N[C@@H](CC(N)=O)C(=O)N[C@H](C(N)=O)[C@@H](C)O` [Peptide 8] (H-H[Aib]HGS[αMeF]TSDVSK[αMeF]LDSK([AEEA-AEEA-γGlu-C18 diacid])AAQDFVQWIANT-NH2; N-terminus assumed), the half-maximal effective concentration (EC50) in experiment [1] (setting [3]) was 87.8 pM; in experiment [2] (setting [3]), 53.6 pM. The “% Relative Potency Ratio” value in experiment [1] (Table 6) was 1.2.

Consider `CC[C@H](C)[C@H](NC(=O)C(C)(C)NC(=O)[C@H](CCC(N)=O)NC(=O)[C@@H](NC(=O)[C@](C)(Cc1ccccc1)NC(=O)[C@H](CC(=O)O)NC(=O)[C@H](CCC(N)=O)NC(=O)[C@H](C)NC(=O)[C@H](C)NC(=O)[C@H](CCCCNC(=O)COCCOCCNC(=O)COCCOCCNC(=O)CC[C@H](NC(=O)CCCCCCCCCCCCCCCCC(=O)O)C(=O)O)NC(=O)[C@H](CO)NC(=O)[C@H](CC(=O)O)NC(=O)[C@H](CC(C)C)NC(=O)[C@](C)(Cc1ccccc1)NC(=O)[C@H](CCCCN)NC(=O)[C@H](CO)NC(=O)[C@@H](NC(=O)[C@H](CC(=O)O)NC(=O)[C@H](CO)NC(=O)[C@@H](NC(=O)[C@](C)(Cc1ccccc1)NC(=O)[C@H](CO)NC(=O)CNC(=O)[C@H](Cc1c[nH]cn1)NC(=O)C(C)(C)NC(=O)[C@@H](N)Cc1c[nH]cn1)[C@@H](C)O)C(C)C)C(C)C)C(=O)N[C@@H](C)C(=O)N[C@@H](CC(N)=O)C(=O)N[C@H](C(N)=O)[C@@H](C)O` [Peptide 24] (H-H[Aib]HGS[αMeF]TSDVSK[αMeF]LDSK([AEEA-AEEA-γGlu-C18 diacid])AAQD[αMeF]VQ[Aib]IANT-NH2; N-terminus assumed), for which the results for the 50% effective concentration (EC50) in experiment [1] (setting [3]) and in experiment [2] (setting [3]) were 82.8 pM and 101 pM, respectively. Besides, the “% Relative Potency Ratio” value in experiment [1] (Table 6) worked out at 2.4.

As to `CCCCCCCCCCCCCCCCCC(=O)N[C@@H](CCC(=O)N[C@@H](CCC(=O)NCCOCCOCCC(=O)NCCOCCOCCC(=O)NCCCC[C@H](NC(=O)[C@H](CO)NC(=O)[C@H](CC(=O)O)NC(=O)[C@H](CC(C)C)NC(=O)[C@](C)(Cc1ccccc1)NC(=O)[C@H](CCCCN)NC(=O)[C@H](CO)NC(=O)[C@@H](NC(=O)[C@H](CC(=O)O)NC(=O)[C@H](CO)NC(=O)[C@@H](NC(=O)[C@](C)(Cc1ccccc1)NC(=O)[C@H](CO)NC(=O)CNC(=O)[C@H](CCC(N)=O)NC(=O)C(C)(C)NC(=O)[C@@H](N)Cc1c[nH]cn1)[C@@H](C)O)C(C)C)C(=O)N[C@@H](C)C(=O)N[C@@H](C)C(=O)N[C@@H](CCC(N)=O)C(=O)N[C@@H](CC(=O)O)C(=O)N[C@@](C)(Cc1ccccc1)C(=O)N[C@H](C(=O)N[C@@H](CCC(N)=O)C(=O)NC(C)(C)C(=O)N[C@@H](CC(C)C)C(=O)N[C@H](C(=O)N[C@@H](CO)C(=O)NCC(N)=O)[C@@H](C)CC)C(C)C)C(=O)O)C(=O)O` [Peptide 77] (H-H[Aib]QGS[αMeF]TSDVSK[αMeF]LDSK([PEG2-PEG2-γGlu-γGlu-Stearoyl])AAQD[αMeF]VQ[Aib]LISG-NH2; N-terminus assumed), the half-maximal effective concentration (EC50) in experiment [1] (setting [3]) was 8.68 pM; in experiment [2] (setting [3]) it was 243 pM. Also, the “% Relative Potency Ratio” value in experiment [1] (Table 6) is reported as 55.5.

With `CC(C)C[C@H](NC(=O)[C@H](Cc1c[nH]c2ccccc12)NC(=O)[C@H](CCC(N)=O)NC(=O)[C@@H](NC(=O)[C@H](Cc1ccccc1)NC(=O)[C@H](CC(=O)O)NC(=O)[C@H](CCCCNC(=O)COCCOCCNC(=O)COCCOCCNC(=O)CC[C@H](NC(=O)CCCCCCCCCCCCCCCCC(=O)O)C(=O)O)NC(=O)[C@H](C)NC(=O)[C@H](C)NC(=O)[C@H](CCCNC(=N)N)NC(=O)[C@H](CO)NC(=O)[C@H](CC(=O)O)NC(=O)[C@H](CC(C)C)NC(=O)[C@](C)(Cc1ccccc1)NC(=O)[C@H](CCCCN)NC(=O)[C@H](CO)NC(=O)[C@@H](NC(=O)[C@H](CC(=O)O)NC(=O)[C@H](CO)NC(=O)[C@@H](NC(=O)[C@H](Cc1ccccc1)NC(=O)[C@@H](NC(=O)CNC(=O)[C@H](CCC(N)=O)NC(=O)C(C)(C)NC(=O)[C@@H](N)Cc1c[nH]cn1)[C@@H](C)O)[C@@H](C)O)C(C)C)C(C)C)C(=O)N[C@@H](CCC(=O)O)C(=O)N[C@@H](C)C(=O)NCC(=O)NCC(N)=O` [Peptide 310], the values for the half-maximal effective concentration (EC50) in experiment [1] (setting [4]) and in experiment [2] (setting [4]) were 56.4 pM and 1840 pM, respectively. Further, the “% Relative Potency Ratio” value in experiment [1] (Table 7) is 64.4.

In the case of `CC[C@H](C)[C@H](NC(=O)[C@H](Cc1c[nH]c2ccccc12)NC(=O)[C@H](CCC(N)=O)NC(=O)[C@@H](NC(=O)[C@H](Cc1ccccc1)NC(=O)[C@H](CC(=O)O)NC(=O)[C@H](CCCCNC(=O)COCCOCCNC(=O)COCCOCCNC(=O)CC[C@H](NC(=O)CCCCCCCCCCCCCCCCC(=O)O)C(=O)O)NC(=O)[C@H](C)NC(=O)[C@H](C)NC(=O)[C@H](CCCNC(=N)N)NC(=O)[C@H](CCC(=O)O)NC(=O)[C@H](CC(=O)O)NC(=O)[C@H](CC(C)C)NC(=O)[C@](C)(Cc1ccccc1)NC(=O)[C@H](CCCCN)NC(=O)[C@H](CO)NC(=O)[C@@H](NC(=O)[C@H](CC(=O)O)NC(=O)[C@H](CO)NC(=O)[C@@H](NC(=O)[C@H](Cc1ccccc1)NC(=O)[C@@H](NC(=O)CNC(=O)[C@H](CCC(N)=O)NC(=O)C(C)(C)NC(=O)[C@@H](N)Cc1c[nH]cn1)[C@@H](C)O)[C@@H](C)O)C(C)C)C(C)C)C(=O)N[C@@H](C)C(=O)N[C@@H](CC(N)=O)C(=O)N[C@H](C(N)=O)[C@@H](C)O` [Peptide 309], the half-maximal effective concentration (EC50) in experiment [1] (setting [4]) came out at 70.6 pM; in experiment [2] (setting [4]) it was 17400 pM. Moreover, the “% Relative Potency Ratio” value in experiment [1] (Table 7) is reported as 486.8.
